The term minimal effective dose denotes the lowest level tested that produced the effect sought.

This note sets out measurements from US5177251A, “Halogenated tetraenyl prostaglandin derivatives” (G. D. Searle & Co., priority 1991, dated 1993).

A value given as a limit tells only on which side of the number the result lay.

The test system of one series is gastric acid secretion. The experiment in a line: Gastric acid secretion assay in dogs (Pavlov gastric pouch, meal-stimulated). It is filed as in vivo, dog (adult female beagles). The note with it: into gastric pouch; for ED50: Canis lupus familiaris, dog, total acid output over 4 hours after feeding, read-out: Gastric Antisecretory (Dog) ED50; for Gastric Antisecretory (Dog), % inhibition at 0.3: at 0.3 (column unit μg/kg). The text has this:
The standard test used to detect gastric antisecretory activity is described as follows.
Adult female beagles, 6-11 kg body weight, were surgically prepared with innervated (Pavlov) gastric pouches that were drained by Thomas-type gastric cannulae. Following surgical recovery, each dog was trained to stand quietly in a dog restraining sling and was conscious for all studies. Experiments began at least 3 weeks after surgery, and no dog was used more than once per week.
Dogs were food-deprived with access to water for 24 hours prior to experiments. Following a 30 minute basal collection period, the prostaglandins or vehicle were administered into the gastric pouch in a 2-3 ml volume. Thirty minutes later the gastric pouch was emptied and gastric secretion was stimulated by feeding 10-12 oz of dog food (Fromm All Beef, Federal Foods Inc., Thiensville, Wis.). Gastric juice samples were collected from the pouch by gravity drainage over a 4 hour period at 30 minute intervals. The volume of secretion was measured (ml/30 min), and the acidity (mequiv/L) was determined by electrometric titration to pH 7.0 with 0.1 N NaOH. These two parameters were multiplied to obtain the total acid output (mequiv/30 minutes) for each collection period.
Percent reduction of total acid output from control was calculated over each 4 hour experiment for doses of prostaglandin. ED50 values and 95% confidence limits were determined from inhibition of secretion curves.

Series [1] concerns ethanol-induced gastric lesions. Kind of series: Ethanol induced gastric lesion assay in rats (cytoprotective). It is filed as in vivo, male Charles River rats. The note with it: rat, oral, 30 minutes before absolute ethanol; read-out: Ethanol-Induced Gastric Lesion *MED (Minimal effective dose). As to the method: In the assay, 0.005-0.5 mg/kg is orally administered to adult 180-220 gram male Charles River rats which have been deprived of food for 24 hours. Thirty minutes later, 1.0 ml of absolute ethanol is administered intragastrically. The rats are sacrificed 60 minutes after alcohol administration and the gastric mucosa are visually examined for the presence of lesions. The number and severity of lesions are scored. A compound is judged active at the concentration evaluated if it provides a statistically significant reduction in the number and/or severity of lesions compared to the control group.

The subject of the next series is diarrhea. Kind of series: Diarrheal assay in rats. It is filed as in vivo, male Charles River rats. The conditions noted are these: intragastric, up to 8 hours. As to the method:
(§1) Diarrhea is an undesirable side effect commonly associated with antisecretory and cytoprotective prostaglandins. […] Groups of 6 adult male Charles River rats weight rang®180 to 200 g, are fasted for 24 hours prior to administering the test substance. The prostaglandin to be tested is administered intragastrically in iso-osmotic phosphate buffer at a volume of 10 ml/kg at doses ranging from 100 to 3000 μg/kg. Control animals receive only the vehicle. The rats are placed in individual wire mesh cages and t he trays lined with brown paper. Diarrhea is assessed at hourly intervals on all or none basis for up to 8 hours after administration of the prostaglandin. Diarrhea is defined as any loose or watery stool. ED50 values are assessed for each hourly diarrheagenic response.

The nature of the next series: Diarrheal assay in rats. It is filed as in vivo, male Charles River rats. The note with it: in vivo, po; rat, intragastric, up to 8 hours; read-out: Diarrhea Rat ED50. On the procedure: as §1
A short description of series [2]: Acid stability in acetic acid:THF:water, thin layer chromatography. It is filed as physicochemical. The note with it: 3:1:1 acetic acid:THF:water, room temperature, TLC, all time points. As to the method: Comparison of Acid Stability of Compound of Example 1 with its parent non-fluorinated analog.
Each compound (4 mg) was separately dissolved in 0.4 ml of a 3:1:1 solution of acetic acid:THF:water and kept at room temperature. Relative decomposition was assessed by thin layer chromatography analysis of aliquots withdrawn at 30 minutes, 1,2, 4 and 6 hours.

Turning to `COC(=O)CC/C=C\CC[C@H]1C(=O)C[C@@H](O)[C@@H]1/C=C/C[C@@](O)(/C=C/C1=CCCC1)C(F)(F)F` (relative stereo) [Example 4, (±)-methyl 7-[2β-[6-(1-cyclopenten-1yl)-4R-hydroxy-4-(trifluoromethyl)-1E,5E-hexadienyl]-3α-hydroxy-5-oxo-1α-cyclopentyl]-4Z-heptenoate], the ED50 with gastric acid secretion was over 0.1 µg/kg. In series [1], the minimal effective dose is 0.1 mg/kg. In the series with diarrhea, the “Diarrhea Rat ED50” value is over 3160 μ/kg.

In the case of `COC(=O)CC/C=C\CC[C@H]1C(=O)C[C@@H](O)[C@@H]1/C=C/C[C@@](O)(/C=C/C=C(C)C)CF` (relative stereo) [Example 10, methyl 16R-(fluoromethyl)-11α,16-dihydroxy-20,20-dimethyl-9-oxoprosta-4Z,13E,17E,19-tetraen-1-oate], in the series on gastric acid secretion, the ED50 was under 0.3 µg/kg. The minimal effective dose in series [1] amounted to 0.025 mg/kg. For the same molecule, the “Diarrhea Rat ED50” value with diarrhea is over 3160 μ/kg.

Consider `COC(=O)CC/C=C\CC[C@H]1C(=O)C[C@@H](O)[C@@H]1/C=C/C[C@@](O)(/C=C/C1=CCCC1)CCl` (relative stereo) [Example 5, (±)-methyl 7-[2β-[4R-(chloromethyl)-6-(1-cyclopenten-1-yl)-4-hydroxy-1E, 5E-hexadienyl]-3α-hydroxy-5-oxo-1α-cyclopentyl]-4Z-heptenoate], for which, in the series on gastric acid secretion, the ED50 was over 0.1 µg/kg. Moreover, the minimal effective dose in series [1] is 0.01 mg/kg.

As to `COC(=O)CC/C=C\CC[C@H]1C(=O)C[C@@H](O)[C@@H]1/C=C/C[C@@](C)(O)/C=C/C(F)=C(C)C` (relative stereo) [Example 8, (±)-methyl 19-fluoro-11α,16R-dihydroxy-16,20,20-trimethyl-9-oxoprosta-4Z,13E,17E, 19-tetraen-1-oate], the minimal effective dose in series [1] is 0.001 mg/kg.

As for `COC(=O)CC/C=C\CC[C@H]1C(=O)C[C@@H](O)[C@@H]1/C=C/C[C@@](O)(/C=C/C1=CCCC1)C(F)F` (relative stereo) [Example 3, (±)-methyl 7-[2β-[6-(1-cyclopenten-1-yl)-4R-(difluoromethyl)-4-hydroxy-1E,5E-hexadienyl]-3α-hydroxy-5-oxo-1α-cyclopentyl]-4Z-heptenoate], the ED50 in the series with gastric acid secretion is over 1 µg/kg. The minimal effective dose in series [1] was determined as 0.01 mg/kg. Besides, the “Diarrhea Rat ED50” value with diarrhea is over 3160 μ/kg.

With `COC(=O)CC/C=C\CC[C@H]1C(=O)C[C@@H](O)[C@@H]1/C=C/C[C@@](O)(/C=C/C1=CCCC1)CF` [Example 2, methyl 7-[2β-[6-(1-cyclopenten-1-yl)-4R-(fluoromethyl)-4-hydroxy-1E,5E-hexadienyl]-3α-hydroxy-5-oxo-1R,1α-cyclopentyl]-4Z-heptenoate], the minimal effective dose in series [1] is 0.001 mg/kg. In the series on diarrhea, the “Diarrhea Rat ED50” value is listed as over 3160 μ/kg.

For the molecule `COC(=O)CC/C=C\CC[C@H]1C(=O)C[C@@H](O)[C@@H]1/C=C/C[C@@](C)(O)/C=C/C=C/C(F)(F)F` (relative stereo) [Example 6, (±)-methyl 11α,16R-dihydroxy-16-methyl-9-oxo-20-(trifluoromethyl) prosta-4Z,13E,17E,19E-tetraen-1-oate], the “Gastric Antisecretory (Dog), % inhibition at 0.3” value with gastric acid secretion was 84%.

On to `COC(=O)CC/C=C\CC[C@H]1C(=O)C[C@@H](O)[C@@H]1/C=C/C[C@@](C)(O)/C=C/C=C(Cl)Cl` (relative stereo) [Example 9, (±)-methyl 20,20-dichloro-11α,16R-dihydroxy-16-methyl-9-oxoprosta-4Z,13E,17E,19-tetraen-1-oate], for which the minimal effective dose in series [1] was determined as 0.0025 mg/kg. In “Diarrheal assay in rats”, the TD50 at 8 h was 1 mg/kg.

For the molecule `COC(=O)CC/C=C\CC[C@H]1C(=O)C[C@@H](O)[C@@H]1/C=C/C[C@@](C)(O)/C=C/C=C(\C)C(F)(F)F` (relative stereo) [Example 7, (±)-methyl 11α,16R-dihydroxy-16,20-dimethyl-9-oxo-20-(trifluoromethyl) prosta-4Z,13E,17E, 19E-tetraen-1-oate], the “Gastric Antisecretory (Dog), % inhibition at 0.3” value in the series on gastric acid secretion was 74%. The minimal effective dose in series [1] amounted to 0.05 mg/kg.

For the molecule `COC(=O)CC/C=C\CC[C@H]1C(=O)C[C@@H](O)[C@@H]1/C=C/C[C@@](O)(/C=C/C1=CCCC1)CF` (relative stereo) [Example 1, (±)-methyl 7-[2β-[6-(1-cyclopenten-1-yl)-4R-(fluoromethyl)-4-hydroxy-1E,5E-hexadienyl]-3α-hydroxy-5-oxo-lo-cyclopentyl]-4Z-heptenoate], the minimal effective dose in series [1] is 0.001 mg/kg. Further, in series [2], the “decomposition at 30 minutes, 1, 2, 4 and 6 hours” value is on record as “virtually no decomposition products were observed”. Further, in the series with diarrhea, the “Diarrhea Rat ED50” value was over 3160 μ/kg.
